Source: the supplement of paper PMC10307832

What was measured:
Assay in all cases: relative viability (nuclei count vs DMSO), 5 days (fraction); higher = more cells survive
Tipifarnib + OSI-027 = compound: Cn1cncc1[C@@](N)(c1ccc(Cl)cc1)c1ccc2c(c1)c(-c1cccc(Cl)c1)cc(=O)n2C [Tipifarnib] + COc1cccc2cc(-c3nc([C@H]4CC[C@H](C(=O)O)CC4)n4ncnc(N)c34)[nH]c12 [OSI-027] (partner 0.5 µM)
How it was run: (§1)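 Nuclei were stained with Hoechst during a one-step fixation (final 0.05% Triton X-100, 1% formaldehyde, 1 ug/ml Hoechst) carried out 5 days after dosing, then counted on 4× images. The cells, lung cancer lines in 1536-well plates, had been dosed by pin tool the day after seeding with one drug alone or a fixed anchor-drug dose plus five library-drug doses (not always all listed) in √10 steps. Relative viability is the nuclei count in treated wells divided by that in vehicle wells, and each value is the median of duplicate plates.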

Tipifarnib + Luminespib = compound: Cn1cncc1[C@@](N)(c1ccc(Cl)cc1)c1ccc2c(c1)c(-c1cccc(Cl)c1)cc(=O)n2C [Tipifarnib] + CCNC(=O)c1noc(-c2cc(C(C)C)c(O)cc2O)c1-c1ccc(CN2CCOCC2)cc1 [Luminespib] (partner 0.01 µM)
How it was run: as §1

Tipifarnib + Linsitinib = compound: Cn1cncc1[C@@](N)(c1ccc(Cl)cc1)c1ccc2c(c1)c(-c1cccc(Cl)c1)cc(=O)n2C [Tipifarnib] + C[C@]1(O)C[C@@H](c2nc(-c3ccc4ccc(-c5ccccc5)nc4c3)c3c(N)nccn32)C1 [Linsitinib] (partner 1 µM)
How it was run: as §1

Tipifarnib + Lapatinib = compound: Cn1cncc1[C@@](N)(c1ccc(Cl)cc1)c1ccc2c(c1)c(-c1cccc(Cl)c1)cc(=O)n2C [Tipifarnib] + CS(=O)(=O)CCNCc1ccc(-c2ccc3ncnc(Nc4ccc(OCc5cccc(F)c5)c(Cl)c4)c3c2)o1 [Lapatinib] (partner 2 µM)
How it was run: as §1

Cell Line	relative viability (Tipifarnib + OSI-027; first compound 0.01 µM)	relative viability (Tipifarnib + OSI-027; first compound 0.03162 µM)	relative viability (Tipifarnib + OSI-027; first compound 0.1 µM)	relative viability (Tipifarnib + OSI-027; first compound 0.3162 µM)	relative viability (Tipifarnib + OSI-027; first compound 1 µM)	relative viability (Tipifarnib + Luminespib; first compound 0.01 µM)	relative viability (Tipifarnib + Luminespib; first compound 0.03162 µM)	relative viability (Tipifarnib + Luminespib; first compound 0.1 µM)	relative viability (Tipifarnib + Luminespib; first compound 0.3162 µM)	relative viability (Tipifarnib + Luminespib; first compound 1 µM)	relative viability (Tipifarnib + Linsitinib; first compound 0.01 µM)	relative viability (Tipifarnib + Linsitinib; first compound 0.03162 µM)	relative viability (Tipifarnib + Linsitinib; first compound 0.1 µM)	relative viability (Tipifarnib + Linsitinib; first compound 0.3162 µM)	relative viability (Tipifarnib + Linsitinib; first compound 1 µM)	relative viability (Tipifarnib + Lapatinib; first compound 0.01 µM)	relative viability (Tipifarnib + Lapatinib; first compound 0.03162 µM)	relative viability (Tipifarnib + Lapatinib; first compound 0.1 µM)	relative viability (Tipifarnib + Lapatinib; first compound 0.3162 µM)	relative viability (Tipifarnib + Lapatinib; first compound 1 µM)
A-427	0.406	0.316	0.365	0.361	0.254	0.828	0.877	0.849	0.691	0.548	1.18	1.11	1.05	1.09	1.09	1	1.13	1.08	0.893	0.46
LCLC-97TM1	0.402	0.409	0.358	0.286	0.22	0.799	0.751	0.662	0.52	0.574	0.204	0.169	0.174	0.192	0.169	0.998	1.02	0.554	0.504	0.237
HCC-15	0.555	0.467	0.293	0.255	0.191	0.332	0.306	0.245	0.302	0.357	0.78	0.751	0.627	0.544	0.548	0.802	0.702	0.639	0.488	0.215
NCI-H647	0.409	0.585	0.438	0.299	0.101	0.239	0.155	0.102	0.0914	0.0951	1.35	1.04	0.649	0.557	0.609	1.17	0.792	0.693	0.668	0.176
SW 1573	0.583	0.244	0.292	0.238	0.17	0.208	0.164	0.239	0.166	0.187	0.7	0.709	0.518	0.387	0.365	1.08	1.13	0.669	0.648	0.243
NCI-H1651	0.65	0.729	0.673	0.558	0.456	0.921	0.934	0.797	0.684	0.753	1.18	1.06	0.964	0.892	0.961	0.931	0.799	0.919	0.85	0.426
NCI-H1792	0.9	0.76	0.548	0.32	0.357	0.505	0.329	0.379	0.268	0.262	0.436	0.453	0.257	0.207	0.233	0.942	0.941	0.782	0.574	0.298
NCI-H2023	0.412	0.273	0.225	0.143	0.132	0.749	0.486	0.386	0.337	0.286	0.598	0.503	0.37	0.329	0.384	1.01	0.544	0.348	0.357	0.105
COR-L 105	0.759	0.588	0.5	0.427	0.417	0.692	0.775	0.475	0.432	0.675	0.88	0.855	0.674	0.554	0.668	0.418	0.317	0.349	0.378	0.296
NCI-H1734	0.581	0.444	0.463	0.316	0.365	0.198	0.147	0.171	0.168	0.164	0.875	0.85	0.709	0.694	0.48	1.18	0.995	0.682	0.618	0.431
NCI-H3122	0.949	0.568	0.384	0.233	0.225	0.0874	0.0613	0.0958	0.0893	0.0812	1.02	0.835	0.784	0.663	0.726	1.01	0.917	0.961	0.73	0.811
CAL-12T	0.565	0.358	0.37	0.272	0.232	0.284	0.335	0.267	0.151	0.15	0.812	0.606	0.616	0.387	0.403	0.709	0.716	0.619	0.525	0.393
NCI-H2085	0.738	0.377	0.397	0.367	0.538	0.406	0.317	0.34	0.295	0.34	0.923	0.651	0.514	0.404	0.479	0.846	0.659	0.633	0.523	0.533
